Experimental data taken from patent US20120219615A1, “Therapeutic Use of a TLR Agonist and Combination Therapy” (The Trustees of the University of Pennsylvania, priority 2010, published 2012).

Test system: G-CSF, MCP-1, MIP-1β, TNFα
Test: Phase I clinical study: pharmacodynamic response, plasma immune mediators (MAP)
Type: in vivo
Details: human, s.c., first dose
Experimental: Study Procedures: VTX-2337 was administered weekly via subcutaneous injection on Days 1, 8, and 15 of a 28-day dosing cycle for two cycles. Using a modified Fibonacci dose-escalation scheme, successive cohorts received doses ranging from 0.1 mg/m^2 to 3.9 mg/m^2 of VTX-2337. Plasma samples were collected for pharmacokinetic analysis after the first dose of the first treatment cycle and for pharmacodynamic analyses after the first dose of the first and second treatment cycles.
To evaluate the pharmacodynamic (PD) response to VTX-2337, blood was collected at 0, 4, 8, 24 hours after subcutaneous administration of the first dose of the first cycle of VTX-2337. Plasma levels of immune mediators were quantified using the human multiple analyte panel (MAP), version 1.8 (Rules Based Medicine). […] Levels of mediators in plasma collected from 9 healthy volunteers are shown for comparison to the oncology population. […]

Structure (SMILES): CCCN(CCC)C(=O)C1=Cc2ccc(-c3ccc(C(=O)N4CCCC4)cc3)cc2N=C(N)C1 [VTX-2337, 2-amino-N,N-dipropyl-8-(4-(pyrrolidine-1-carbonyl)phenyl)-3H-benzo[b]azepine-4-carboxamide]
- G-CSF plasma level (Cohort 5 (1.3 mg/m^2), 0 Hr): 5.0 ± 0.3 pg/mL
- MCP-1 plasma level (Cohort 5 (1.3 mg/m^2), 0 Hr): 227 ± 79.8 pg/mL
- MIP-1β plasma level (Cohort 5 (1.3 mg/m^2), 0 Hr): 182 ± 36.9 pg/mL
- TNFα plasma level (Cohort 5 (1.3 mg/m^2), 0 Hr): 9.3 ± 4.1 pg/mL
- G-CSF plasma level (Cohort 5 (1.3 mg/m^2), 4 Hr): 20.5 ± 24.7 pg/mL
- MCP-1 plasma level (Cohort 5 (1.3 mg/m^2), 4 Hr): 911 ± 951 pg/mL
- MIP-1β plasma level (Cohort 5 (1.3 mg/m^2), 4 Hr): 543 ± 477 pg/mL
- TNFα plasma level (Cohort 5 (1.3 mg/m^2), 4 Hr): 14.9 ± 12.5 pg/mL
- G-CSF plasma level (Cohort 5 (1.3 mg/m^2), 8 Hr): 196 ± 145 pg/mL
- MCP-1 plasma level (Cohort 5 (1.3 mg/m^2), 8 Hr): 954 ± 638 pg/mL
- MIP-1β plasma level (Cohort 5 (1.3 mg/m^2), 8 Hr): 688 ± 635 pg/mL
- TNFα plasma level (Cohort 5 (1.3 mg/m^2), 8 Hr): 21.6 ± 13.3 pg/mL
- G-CSF plasma level (Cohort 5 (1.3 mg/m^2), 24 Hr): 30.8 ± 10.4 pg/mL
- MCP-1 plasma level (Cohort 5 (1.3 mg/m^2), 24 Hr): 246 ± 158 pg/mL
- MIP-1β plasma level (Cohort 5 (1.3 mg/m^2), 24 Hr): 228 ± 70.1 pg/mL
- TNFα plasma level (Cohort 5 (1.3 mg/m^2), 24 Hr): 15.3 ± 4.2 pg/mL
- G-CSF plasma level (Cohort 6 (2.0 mg/m^2), 0 Hr): 9.9 ± 8.2 pg/mL
- MCP-1 plasma level (Cohort 6 (2.0 mg/m^2), 0 Hr): 265 ± 161 pg/mL
- MIP-1β plasma level (Cohort 6 (2.0 mg/m^2), 0 Hr): 136 ± 28.3 pg/mL
- TNFα plasma level (Cohort 6 (2.0 mg/m^2), 0 Hr): 4.4 ± 1.6 pg/mL
- G-CSF plasma level (Cohort 6 (2.0 mg/m^2), 4 Hr): 14.0 ± 4.3 pg/mL
- MCP-1 plasma level (Cohort 6 (2.0 mg/m^2), 4 Hr): 247 ± 80.5 pg/mL
- MIP-1β plasma level (Cohort 6 (2.0 mg/m^2), 4 Hr): 196 ± 62.5 pg/mL
- TNFα plasma level (Cohort 6 (2.0 mg/m^2), 4 Hr): 8.4 ± 1.5 pg/mL
- G-CSF plasma level (Cohort 6 (2.0 mg/m^2), 8 Hr): 134 ± 149 pg/mL
- MCP-1 plasma level (Cohort 6 (2.0 mg/m^2), 8 Hr): 722 ± 224 pg/mL
- MIP-1β plasma level (Cohort 6 (2.0 mg/m^2), 8 Hr): 289 ± 111 pg/mL
- TNFα plasma level (Cohort 6 (2.0 mg/m^2), 8 Hr): 10.0 ± 2.3 pg/mL
- G-CSF plasma level (Cohort 6 (2.0 mg/m^2), 24 Hr): 42.2 ± 31.6 pg/mL
- MCP-1 plasma level (Cohort 6 (2.0 mg/m^2), 24 Hr): 320 ± 244 pg/mL
- MIP-1β plasma level (Cohort 6 (2.0 mg/m^2), 24 Hr): 155 ± 26 pg/mL
- TNFα plasma level (Cohort 6 (2.0 mg/m^2), 24 Hr): 10.0 ± 0.2 pg/mL
- G-CSF plasma level (Cohort 7 (2.8 mg/m^2), 0 Hr): 7.4 ± 3.2 pg/mL
- MCP-1 plasma level (Cohort 7 (2.8 mg/m^2), 0 Hr): 250 ± 110 pg/mL
- MIP-1β plasma level (Cohort 7 (2.8 mg/m^2), 0 Hr): 136 ± 22 pg/mL
- TNFα plasma level (Cohort 7 (2.8 mg/m^2), 0 Hr): 6.1 ± 1.8 pg/mL
- G-CSF plasma level (Cohort 7 (2.8 mg/m^2), 4 Hr): 12.4 ± 2.4 pg/mL
- MCP-1 plasma level (Cohort 7 (2.8 mg/m^2), 4 Hr): 719 ± 433 pg/mL
- MIP-1β plasma level (Cohort 7 (2.8 mg/m^2), 4 Hr): 517 ± 305 pg/mL
- TNFα plasma level (Cohort 7 (2.8 mg/m^2), 4 Hr): 10.9 ± 1.4 pg/mL
- G-CSF plasma level (Cohort 7 (2.8 mg/m^2), 8 Hr): 553 ± 246 pg/mL
- MCP-1 plasma level (Cohort 7 (2.8 mg/m^2), 8 Hr): 2043 ± 760 pg/mL
- MIP-1β plasma level (Cohort 7 (2.8 mg/m^2), 8 Hr): 646 ± 216 pg/mL
- TNFα plasma level (Cohort 7 (2.8 mg/m^2), 8 Hr): 12.8 ± 2.5 pg/mL
- G-CSF plasma level (Cohort 7 (2.8 mg/m^2), 24 Hr): 59.0 ± 31.7 pg/mL
- MCP-1 plasma level (Cohort 7 (2.8 mg/m^2), 24 Hr): 273 ± 109 pg/mL
- MIP-1β plasma level (Cohort 7 (2.8 mg/m^2), 24 Hr): 152 ± 82 pg/mL
- TNFα plasma level (Cohort 7 (2.8 mg/m^2), 24 Hr): 8.8 ± 4.1 pg/mL
- G-CSF plasma level (Cohort 8 (3.9 mg/m^2), 0 Hr): 29.1 ± 55.8 pg/mL
- MCP-1 plasma level (Cohort 8 (3.9 mg/m^2), 0 Hr): 249 ± 56 pg/mL
- MIP-1β plasma level (Cohort 8 (3.9 mg/m^2), 0 Hr): 236 ± 111 pg/mL
- TNFα plasma level (Cohort 8 (3.9 mg/m^2), 0 Hr): 14.9 ± 9.1 pg/mL
- G-CSF plasma level (Cohort 8 (3.9 mg/m^2), 4 Hr): 83.3 ± 104.7 pg/mL
- MCP-1 plasma level (Cohort 8 (3.9 mg/m^2), 4 Hr): 5227 ± 8362 pg/mL
- MIP-1β plasma level (Cohort 8 (3.9 mg/m^2), 4 Hr): 7793 ± 10824 pg/mL
- TNFα plasma level (Cohort 8 (3.9 mg/m^2), 4 Hr): 56.9 ± 48.3 pg/mL
- G-CSF plasma level (Cohort 8 (3.9 mg/m^2), 8 Hr): 2151 ± 3586 pg/mL
- MCP-1 plasma level (Cohort 8 (3.9 mg/m^2), 8 Hr): 8128 ± 10588 pg/mL
- MIP-1β plasma level (Cohort 8 (3.9 mg/m^2), 8 Hr): 2259 ± 2456 pg/mL
- TNFα plasma level (Cohort 8 (3.9 mg/m^2), 8 Hr): 42.7 ± 27.4 pg/mL
- G-CSF plasma level (Cohort 8 (3.9 mg/m^2), 24 Hr): 141.4 ± 228.8 pg/mL
- MCP-1 plasma level (Cohort 8 (3.9 mg/m^2), 24 Hr): 532 ± 571 pg/mL
- MIP-1β plasma level (Cohort 8 (3.9 mg/m^2), 24 Hr): 276 ± 108 pg/mL
- TNFα plasma level (Cohort 8 (3.9 mg/m^2), 24 Hr): 24.2 ± 9.4 pg/mL
